The subject of assay [1] is H4-iCaspase-SEP-mCherry cells in neurovascular unit model. The assay is described as follows: Phagocytosis assay in 3D neurovascular unit model in microfluidic chip. It is filed as cell-based, human. As to conditions: 10 nM AP20187, 3D matrix of microfluidic chip, after 7 days culture. How it is done: H4 cells were transduced with a lentiviral vector containing iCaspase-SEP-mCherry, single-cell sorted for SEP- and mCherry double positive cells and expanded in 1 μg/ml Puromycin-containing media to select for stably transduced cells. H4-iCaspase-SEP-mCherry and HMC3 microglia were co-seeded with primary human brain endothelial cells, pericytes and astrocytes (Sciencell) at the ratio 1:1:4:0.5:1 and left to self-assemble to neurovascular units inside a fibrin gel matrix in a microfluidic chip (AIM Biotech). The cells were seeded into the microfluidic chips as described in Campisi, M et al.3D Self-Organized Human Blood-Brain Barrier in a Microfluidic Chip. Methods Mol Biol. 2021; 2258:205-219, and the vascular networks were grown over 7 days in EGM2 medium (Lonza) with astrocyte growth supplement (Sciencell). Apoptosis was induced at t0 by adding 10 nM AP20187 to the media, the chips were then fixed in 4% PFA after 30 minutes or 2 h, counterstained with DAPI and imaged on an inverted fluorescence microscope.

For assay [2], the system named is HEK293 cells transfected with iCaspase9. The assay is described as follows: Apoptosis induction in iCaspase9-transfected HEK293 cells, AnnexinV/viability dye flow cytometry. The format is cell-based. The method, then: HEK293 cells were transfected with 2 μg of iCaspase9 construct by nucleofection (Amaxa 4D nucleofector by Lonza, program CM-130) and plated in a 24-well plate. The following day, 100 nM AP20187 was added to the cells, and analyzed 1 h, 2 h or 3 h later. For the control, the cells were incubated with […] Staurosporine for 3 h. For the analysis, the cells were harvested and labeled with AnnexinV-BV421 and viability dye APCeF780 and analyzed by flow cytometry. Apoptotic cells were qualified as AnnexinV-positive and viability dye-negative.

Assay [3] deals with H4-iCaspase-SEP-mCherry cells in blood-brain barrier spheroids. The assay is described as follows: Phagocytosis assay in 3D BBB spheroids (H4-iCaspase-SEP-mCherry and HMC3 microglia). The format is cell-based, human. As to conditions: 100 nM AP20187, day 2, imaged 8 hours. The method, then:
H4 cells were transduced with a lentiviral vector containing iCaspase-SEP-mCherry, single-cell sorted for SEP- and mCherry double-positive cells and expanded in 1 μg/ml Puromycin-containing media to select for stably transduced cells. H4-iCaspase-SEP-mCherry and HMC3 microglia were co-seeded with primary human brain endothelial cells, pericytes and astrocytes (Sciencell) to form blood-brain barrier (BBB) spheroids as described by Simonneau, C et al. Investigating receptor-mediated antibody transcytosis using blood-brain barrier organoid arrays. Fluids Barriers CNS. 2021; 18 (1): 43. Briefly, the cells were combined at a 1:1:1:1:1 ratio and seeded into a glass-bottom GRI3D microwell plate (SUN Biosciences). After 2 days of culture in EGM2 medium (Lonza) with astrocyte growth supplement (Sciencell), a timelapse experiment was performed as described above (for FIG. 4): Apoptosis was induced at t0 by adding 100 nM AP20187 to the media, and time-lapse imaging was immediately started on an inverted fluorescence microscope (Leica) using autofocus, 10× objective, 1 image every 10 minutes for 8 hours or more.

Assay [4] relates to phagocytosis by iPSC-derived microglia. The assay can be described thus: 2D phagocytosis of apoptotic H4-iCaspase-SEP-mCherry cells by iPSC-derived microglia (Incucyte imaging). It is filed as cell-based, human. As to conditions: 1 uM Cytochalasin D added 30 min before imaging; apoptosis induced with 10 nM AP20187. How it is done:
H4 cells were transduced with a lentiviral vector containing iCaspase-SEP-mCherry, single-cell sorted for SEP and mCherry double-positive cells and expanded in 1 μg/ml Puromycin-containing media to select for stably transduced cells. HMC3 or iPSC-derived microglia (Reich, M et al. Alzheimer's Risk Gene TREM2 Determines Functional Properties of New Type of Human iPSC-Derived Microglia. 2021; 11:617860) were seeded in a 96-well imaging plate […]. To visualize microglial morphology during the phagocytosis assay, cells were stained with a far-red viability dye (eBioscience). H4-iCaspase-SEP-mCherry cells were added the next day and left to attach for 3 h. […] Apoptosis was induced at to by adding 10 nM AP20187 to the media, and time-lapse imaging was immediately started on an inverted fluorescence microscope (Leica) or incucyte (Sartorius), 10× objective, 1 image every 10 minutes for 8 hours or more.
The number of phagocytosed cells per area was determined using the incucyte software for automated image quantification, by 1) segmenting individual cells, 2) identifying all H4-iCaspase-SEP-mCherry cells positive for mCherry (red fluorescence) and 3) from those cells, identifying the SEP (green fluorescence) negative cells as phagocytosed cells. […]

Assay [5] deals with efferocytosis by THP-1 macrophages. The assay is described as follows: Efferocytosis of Jurkat-iCaspase-SEP-mCherry cells by THP-1 macrophages, flow cytometry. It is filed as cell-based. Particulars: Jurkat cells pre-treated, then 10 nM AP20187, incubated with THP-1 macrophages. The method, then: Jurkat cells were transduced with a lentiviral vector containing iCaspase-SEP-mCherry, FACS sorted for SEP- and mCherry-expression and expanded in 1 ug/ml Puromycin-containing media to select for stably transduced cells. For pre-treatments, the Jurkat cells were incubated with GAS6, an efferocytosis enhancer, or Cytochalasin D, an efferocytosis inhibitor, then exposed to 10 nM AP20187 and incubated with THP-1 macrophages. As a control, Jurkat cells were treated with Staurosporin and labeled with pHrodo (red pH-sensitive fluorophore). Efferocytosis was quantified using flow cytometry, by gating for mCherry-positive and SEP-negative cells (apoptotic cells taken up by THP1), and for pHrodo-high cells in the control samples.
On the technique in general: In flow cytometry, cells or beads pass a laser one at a time.

For `CC[C@H](C(=O)N1CCCC[C@H]1C(=O)O[C@H](CCc1ccc(OC)c(OC)c1)c1cccc(OCC(=O)NCC(CNC(=O)COc2cccc([C@@H](CCc3ccc(OC)c(OC)c3)OC(=O)[C@@H]3CCCCN3C(=O)[C@@H](CC)c3cc(OC)c(OC)c(OC)c3)c2)CN(C)C)c1)c1cc(OC)c(OC)c(OC)c1` [AP20187], in assay [1], the “time to efficient induction of apoptosis in transduced cells” value is at most 30 min. Besides, the “apoptotic cells (AnnexinV-positive and viability dye-negative)” value in assay [2] (100 nM AP20187, after 1 h, iCaspase9 HEK293 cells) is given as 88%. For the same molecule, the “SEP signal of spheroids (loss indicates phagocytosis)” value in assay [3] is given as “gradually lost SEP signal”.

Turning to `C=C1[C@@H](C)[C@H]2[C@H](Cc3ccccc3)NC(=O)[C@]23[C@H](OC(C)=O)/C=C/[C@@](C)(O)C(=O)[C@@H](C)C/C=C/[C@H]3[C@@H]1O` [Cytochalasin D], the “onset and total amount of phagocytosed apoptotic cells” value in assay [4] is “reduces both the onset and total amount”. In assay [5], the “uptake of apoptotic cells by macrophages” value was “lowest uptake”.

As for `CN[C@@H]1C[C@H]2O[C@@](C)([C@@H]1OC)n1c3ccccc3c3c4c(c5c6ccccc6n2c5c31)C(=O)NC4` [Staurosporine], the “apoptotic cells (AnnexinV-positive and viability dye-negative)” value in assay [2] (Staurosporine, after 3 h) is listed as 36%.

B1: GAS6: an efferocytosis enhancer (protein, UniProt Q14393 31-678, looked up)
Growth arrest-specific …: ALLPAREATQFLRPRQRRAFQVFEEAKQGHLERECVEELCSREEAREVFENDPETDYFYPRYLDCINKYGSPYTKNSGFATCVQNLPDQCTPNPCDRKGTQACQDLMGNFFCLCKAGWGGRLCDKDVNECSQENGGCLQICHNKPGSFHCSCHSGFELSSDGRTCQDIDECADSEACGEARCKNLPGSYSCLCDEGFAYSSQEKACRDVDECLQGRCEQVCVNSPGSYTCHCDGRGGLKLSQDMDTCEDILPCVPFSVAKSVKSLYLGRMFSGTPVIRLRFKRLQPTRLVAEFDFRTFDPEGILLFAGGHQDSTWIVLALRAGRLELQLRYNGVGRVTSSGPVINHGMWQTISVEELARNLVIKVNRDAVMKIAVAGDLFQPERGLYHLNLTVGGIPFHEKDLVQPINPRLDGCMRSWNWLNGEDTTIQETVKVNTRMQCFSVTERGSFYPGSGFAFYSLDYMRTPLDVGTESTWEVEVVAHIRPAADTGVLFALWAPDLRAVPLSVALVDYHSTKKLKKQLVVLAVEHTALALMEIKVCDGQEHVVTVSLRDGEATLEVDGTRGQSEVSAAQLQERLAVLERHLRSPVLTFAGGLPDVPVTSAPVTAFYRGCMTLEVNRRLLDLDEAAYKHSDITAHSCPPVEPAAA
Regarding B1, in assay [5], the “uptake of apoptotic cells by macrophages” value is “highest uptake”.

These data come from patent publication US20250320523A1, “PHAGOCYTOSIS ASSAY COMBINING A SYNTHETIC CELL DEATH SWITCH AND A PHAGOCYTOSIS REPORTER SYSTEM” (Hoffmann-La Roche Inc., priority 2022, published 2025).
